Patent US12606561B2, “Substituted pyrazolo[1,5-a][1,3,5]triazines as CDK inhibitors” (QURIENT CO., LTD., priority 2018, dated 2026)

Key:
CDK1/Cyclin B = biological target: T1, CDK1/Cyclin B (Homo sapiens, UniProt P06493); assay: Enzymatic assay for CDK1 (LANCE Ultra kinase assay, FRET based); type: biochemical; conditions: ATP at Km; read-out: CDK1 enzymatic activity IC50
T1 construct: purchased Invitrogen PR4768C
Description: (§1) Enzymatic Binding Assay Protocol for CDK1, CDK2, CDK5 and CDK7
(§2) Inhibition activity of the respective compound on CDK kinase under Km value of ATP was tested in FRET based The LANCE® Ultra kinase assay (Perkin Elmer), which uses a ULight™-labeled peptide substrate and an appropriate Europium-labeled anti-phospho-antibody. […] After 1 min centrifugation at 1000 rpm, purified CDKs/Cyclin complex were added with the following concentrations respectively. […] Data were analyzed using XL Fit software.

CDK2/Cyclin A = biological target: T2, CDK2/Cyclin A (Homo sapiens, UniProt P24941); assay: Enzymatic assay for CDK2 (LANCE Ultra kinase assay, FRET based); type: biochemical; conditions: ATP at Km
T2 construct: purchased Invitrogen PV6290
Description: as §1
(§3) Inhibition activity of the respective compound on CDK kinase under Km value of ATP was tested in FRET based The LANCE® Ultra kinase assay (Perkin Elmer), which uses a ULight™-labeled peptide substrate and an appropriate Europium-labeled anti-phospho-antibody. Test compounds were made with DMSO solutions, and then 4-fold serial dilutions for 8 doses were prepared using automated liquid handler (POD™ 810, Labcyte) and 80 nL/well of diluted compound solutions were added into the 384-well plates (Greiner, Cat #784075). And then 68 nM of ULight-MBP peptide (Perkin Elmer, Cat #TRF0109-M) and 5 ul/well of ATP (Sigma, Cat #A7699) were added to the plate. After 1 min centrifugation at 1000 rpm, purified CDKs/Cyclin complex were added with the following concentrations respectively. 24 uM for CDK1/Cyclin B (Invitrogen, Cat #PR4768C), 22 uM for CDK2/Cyclin A (Invitrogen, Cat #PV6290), 10 uM for CDK5/p25 (Invitrogen, Cat #PR8543B) and […] for CDK7/Cyclin H/MNAT1 (Invitrogen, Cat #PR6749B) were added to each corresponding plate for CDK1, CDK2, CDK5 and CDK7. Incubate at 23° C. for 60 min and then Eu-labeled anti-phospho-Myelin Basic Protein (PE, Cat #TRF0201-M) and EDTA (Invitrogen, Cat #15575038) mixture in Lance Detection Buffer (Perkin Elmer, Cat #CR97100) was added in each well. After additional incubation at 23° C. for 60 min, test articles were measured the fluorescence using Envision leader (Perkin Elmer, USA) [Laser as excitation light; […] as the first and the second emission filter]. Data were analyzed using XL Fit software.

CDK7/Cyclin H/MNAT1 = biological target: T3, CDK7/Cyclin H/MNAT1 (Homo sapiens, UniProt P50613); assay: Enzymatic assay for CDK7 (LANCE Ultra kinase assay, FRET based); type: biochemical; conditions: for IC50: ATP at Km
T3 construct: purchased Invitrogen PR6749B
Description: as §1, §2

A2780 = A2780 viability assay (CellTiter-Glo, 72 hours); type: cell-based; conditions: Homo sapiens; A2780 cells
Description: Human […] cell line, MV4-11_(ATCC, Cat #CRL-9591), NSCLC (Non-small cell lung cancer) cell line H460 (ATCC, Cat #HTB-177), A2780 (ECACC, Cat #93112519) and OVCAR-3(ATCC, Cat #HTB-161) were obtained from ATCC. Cells were grown in RPMI-1640 media (Invitrogen, Cat #22400-089) supplemented with 10% FBS (Invitrogen, Cat #10099141) and 1% penicillin/streptomycin (Invitrogen, Cat #15070063) and cultured at 37° C., 5% CO2 in a humidified chamber. All cell lines were routinely tested for mycoplasma.
To effect of the CDK7 inhibitor to inhibit the growth of target cancer cells, viability assay were conducted a 72 hour time period. Briefly, the candidate cell line was plated in 96 well plate at the following density of cells respectively. 1×10^4 cells/well for MV4-11, 5×10^3 for H460 and OVCAR-3, and 1×10^3 for A2780. After 24 hours, the cells were treated with various concentrations of the compound (ranging from 0.0015 uM to 10 uM). DMSO solvent without compound served as a control and final DMSO concentration lest than 0.1%. After 72 hours of incubation at 37° C., 5% CO2 incubator, cells were analyzed for the viability using the CellTiter-Glo Luminescent Cell Viability Assay (Promega, Cat #G7570). All viability assays were performed in duplicate and Luminescence was read using an Envision (Perkin Elmer, USA). Data was analyzed using XLfit software.

CDK5/p25 = biological target: T4, CDK5/p25 (Homo sapiens, UniProt Q00535); assay: Enzymatic assay for CDK5 (LANCE Ultra kinase assay, FRET based); type: biochemical; conditions: ATP at Km
T4 construct: purchased Invitrogen PR8543B
Description: as §1, §3

T3 sequence (P50613 whole entry): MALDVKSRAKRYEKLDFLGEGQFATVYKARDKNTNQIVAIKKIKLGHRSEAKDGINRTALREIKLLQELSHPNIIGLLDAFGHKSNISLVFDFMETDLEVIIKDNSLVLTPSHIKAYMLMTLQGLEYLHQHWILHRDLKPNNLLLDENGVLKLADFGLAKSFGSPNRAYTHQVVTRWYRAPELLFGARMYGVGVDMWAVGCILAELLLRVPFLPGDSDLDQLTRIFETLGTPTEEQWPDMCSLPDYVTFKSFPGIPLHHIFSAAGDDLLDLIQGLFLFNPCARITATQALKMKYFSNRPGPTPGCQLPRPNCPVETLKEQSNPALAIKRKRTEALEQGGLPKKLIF
T3 sequence (P51946 whole entry partner): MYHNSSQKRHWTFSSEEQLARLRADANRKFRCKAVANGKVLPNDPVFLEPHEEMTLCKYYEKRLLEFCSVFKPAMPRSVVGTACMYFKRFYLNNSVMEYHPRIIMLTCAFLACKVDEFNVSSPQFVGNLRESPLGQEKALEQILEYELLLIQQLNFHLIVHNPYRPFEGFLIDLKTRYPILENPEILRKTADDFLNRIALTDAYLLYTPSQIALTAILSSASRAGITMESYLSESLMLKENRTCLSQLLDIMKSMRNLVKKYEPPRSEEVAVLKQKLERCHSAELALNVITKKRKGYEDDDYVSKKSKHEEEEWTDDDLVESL
T3 sequence (P51948 whole entry partner): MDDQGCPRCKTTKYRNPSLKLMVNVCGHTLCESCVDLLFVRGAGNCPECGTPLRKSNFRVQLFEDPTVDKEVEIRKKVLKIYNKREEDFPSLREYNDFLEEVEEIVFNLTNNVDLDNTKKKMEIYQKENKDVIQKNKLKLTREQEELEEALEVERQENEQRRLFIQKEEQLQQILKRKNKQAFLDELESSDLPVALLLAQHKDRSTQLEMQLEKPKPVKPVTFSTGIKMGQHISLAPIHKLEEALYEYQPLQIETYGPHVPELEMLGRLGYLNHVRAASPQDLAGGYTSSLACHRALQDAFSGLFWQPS
T1 sequence (P06493 whole entry): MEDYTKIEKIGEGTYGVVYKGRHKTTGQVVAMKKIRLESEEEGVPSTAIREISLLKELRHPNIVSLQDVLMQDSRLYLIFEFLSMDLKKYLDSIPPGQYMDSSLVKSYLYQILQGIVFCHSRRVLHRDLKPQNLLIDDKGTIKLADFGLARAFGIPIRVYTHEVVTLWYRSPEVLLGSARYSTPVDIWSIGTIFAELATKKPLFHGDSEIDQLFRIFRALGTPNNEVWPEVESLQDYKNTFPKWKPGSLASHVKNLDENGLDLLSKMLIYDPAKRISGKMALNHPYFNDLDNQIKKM
T1 sequence (P14635 whole entry partner): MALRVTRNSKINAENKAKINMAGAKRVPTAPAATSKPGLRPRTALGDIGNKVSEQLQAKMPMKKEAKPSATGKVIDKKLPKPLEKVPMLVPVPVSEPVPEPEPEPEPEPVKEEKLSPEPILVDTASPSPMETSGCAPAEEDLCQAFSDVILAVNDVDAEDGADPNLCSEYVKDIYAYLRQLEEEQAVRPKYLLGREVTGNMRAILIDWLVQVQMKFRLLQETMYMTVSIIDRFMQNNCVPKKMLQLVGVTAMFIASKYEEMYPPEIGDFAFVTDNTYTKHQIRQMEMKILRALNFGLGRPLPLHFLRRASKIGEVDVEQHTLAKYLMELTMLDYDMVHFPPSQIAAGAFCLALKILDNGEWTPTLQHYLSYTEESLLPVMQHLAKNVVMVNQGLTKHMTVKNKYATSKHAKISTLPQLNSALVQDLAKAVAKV
T4 sequence (Q00535 whole entry): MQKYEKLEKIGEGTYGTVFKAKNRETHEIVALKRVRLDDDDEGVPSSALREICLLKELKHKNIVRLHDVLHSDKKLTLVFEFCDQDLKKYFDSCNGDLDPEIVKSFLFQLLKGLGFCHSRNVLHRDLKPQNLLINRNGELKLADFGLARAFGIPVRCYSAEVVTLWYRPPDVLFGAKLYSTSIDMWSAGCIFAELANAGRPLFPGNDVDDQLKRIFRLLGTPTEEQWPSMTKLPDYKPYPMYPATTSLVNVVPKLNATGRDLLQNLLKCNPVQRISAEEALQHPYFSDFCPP
T4 sequence (Q15078 99-307 partner limits assumed): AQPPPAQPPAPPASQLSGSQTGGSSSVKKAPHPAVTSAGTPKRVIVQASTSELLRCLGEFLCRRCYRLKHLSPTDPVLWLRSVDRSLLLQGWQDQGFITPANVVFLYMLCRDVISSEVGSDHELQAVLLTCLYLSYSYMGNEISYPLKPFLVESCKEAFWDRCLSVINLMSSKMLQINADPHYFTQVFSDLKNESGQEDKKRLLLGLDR

C=CC(=O)Nc1ccc2c(-c3cccc(C(F)(F)F)c3CNc3nc(Nc4cccnc4)nc4c(C(C)C)cnn34)nccc2c1 [Compound 213]
IC50 (CDK1/Cyclin B): > 1 µM
IC50 (CDK2/Cyclin A): > 1 µM
IC50 (CDK7/Cyclin H/MNAT1): > 1 µM
CDK1/CDK7: Selectivity of CDK7 inhibition over CDK1 inhibition (CDK7/Cyclin H/MNAT1): C (C indicates [fold] ≤ 50)
CDK2/CDK7: Selectivity of CDK7 inhibition over CDK2 inhibition (CDK7/Cyclin H/MNAT1): C (C indicates [fold] ≤ 50)
CDK5/CDK7: Selectivity of CDK7 inhibition over CDK5 inhibition (CDK7/Cyclin H/MNAT1): C (C indicates [fold] ≤ 50)
IC50 (A2780): 1 to 10 µM
IC50 (CDK5/p25): > 1 µM

C=C(F)C(=O)N1CCc2c(cccc2-c2ccccc2CNc2nc(OC3CCC(C)(C)NC3)nc3c(C(C)C)cnn23)C1 (centres unmarked) [Compound 191]
IC50 (CDK1/Cyclin B): > 1 µM
IC50 (CDK2/Cyclin A): > 1 µM
IC50 (CDK7/Cyclin H/MNAT1): < 0.1 µM
CDK1/CDK7: Selectivity of CDK7 inhibition over CDK1 inhibition (CDK7/Cyclin H/MNAT1): A (A indicates [fold] > 500)
CDK2/CDK7: Selectivity of CDK7 inhibition over CDK2 inhibition (CDK7/Cyclin H/MNAT1): A (A indicates [fold] > 500)
CDK5/CDK7: Selectivity of CDK7 inhibition over CDK5 inhibition (CDK7/Cyclin H/MNAT1): A (A indicates [fold] > 500)
IC50 (A2780): < 1 µM
IC50 (CDK5/p25): > 1 µM

CC(C)c1cnn2c(NCc3ccccc3-c3nccc4cc(NC(=O)/C=C/CN(C)C)ccc34)cc(N3CCNC(C(F)(F)F)C3)nc12 (centres unmarked) [Compound 214]
IC50 (CDK1/Cyclin B): > 1 µM
IC50 (CDK2/Cyclin A): > 1 µM
IC50 (CDK7/Cyclin H/MNAT1): < 0.1 µM
CDK1/CDK7: Selectivity of CDK7 inhibition over CDK1 inhibition (CDK7/Cyclin H/MNAT1): A (A indicates [fold] > 500)
CDK2/CDK7: Selectivity of CDK7 inhibition over CDK2 inhibition (CDK7/Cyclin H/MNAT1): A (A indicates [fold] > 500)
CDK5/CDK7: Selectivity of CDK7 inhibition over CDK5 inhibition (CDK7/Cyclin H/MNAT1): A (A indicates [fold] > 500)
IC50 (A2780): < 1 µM
IC50 (CDK5/p25): > 1 µM

C=C(C)C(=O)Nc1ccc2c(-c3ccccc3CNc3cc(C(F)(F)F)nc4c(C(C)C)cnn34)nccc2c1 [Compound 208]
IC50 (CDK1/Cyclin B): > 1 µM
IC50 (CDK2/Cyclin A): > 1 µM
IC50 (CDK7/Cyclin H/MNAT1): 0.1 to 1 µM
CDK1/CDK7: Selectivity of CDK7 inhibition over CDK1 inhibition (CDK7/Cyclin H/MNAT1): B (B indicates 50 < [fold] ≤ 500)
CDK2/CDK7: Selectivity of CDK7 inhibition over CDK2 inhibition (CDK7/Cyclin H/MNAT1): B (B indicates 50 < [fold] ≤ 500)
CDK5/CDK7: Selectivity of CDK7 inhibition over CDK5 inhibition (CDK7/Cyclin H/MNAT1): B (B indicates 50 < [fold] ≤ 500)
IC50 (A2780): 1 to 10 µM
IC50 (CDK5/p25): > 1 µM

C=CC(=O)Nc1ccc2c(-c3ccccc3CNc3nc(NCc4cnc(C)s4)nc4c(C(C)C)cnn34)nccc2c1 [Compound 196]
IC50 (CDK1/Cyclin B): > 1 µM
IC50 (CDK2/Cyclin A): > 1 µM
IC50 (CDK7/Cyclin H/MNAT1): > 1 µM
CDK1/CDK7: Selectivity of CDK7 inhibition over CDK1 inhibition (CDK7/Cyclin H/MNAT1): C (C indicates [fold] ≤ 50)
CDK2/CDK7: Selectivity of CDK7 inhibition over CDK2 inhibition (CDK7/Cyclin H/MNAT1): C (C indicates [fold] ≤ 50)
CDK5/CDK7: Selectivity of CDK7 inhibition over CDK5 inhibition (CDK7/Cyclin H/MNAT1): C (C indicates [fold] ≤ 50)
IC50 (A2780): 1 to 10 µM
IC50 (CDK5/p25): > 1 µM

C=CC(=O)Nc1ccc2c(-c3ccccc3CNc3nc(Nc4cccc(OC5CCC(C)(C)NC5)c4)nc4c(C(C)C)cnn34)nccc2c1 (centres unmarked) [Compound 194]
IC50 (CDK1/Cyclin B): > 1 µM
IC50 (CDK2/Cyclin A): > 1 µM
IC50 (CDK7/Cyclin H/MNAT1): < 0.1 µM
CDK1/CDK7: Selectivity of CDK7 inhibition over CDK1 inhibition (CDK7/Cyclin H/MNAT1): A (A indicates [fold] > 500)
CDK2/CDK7: Selectivity of CDK7 inhibition over CDK2 inhibition (CDK7/Cyclin H/MNAT1): A (A indicates [fold] > 500)
CDK5/CDK7: Selectivity of CDK7 inhibition over CDK5 inhibition (CDK7/Cyclin H/MNAT1): A (A indicates [fold] > 500)
IC50 (A2780): < 1 µM
IC50 (CDK5/p25): > 1 µM

C=C(F)C(=O)Nc1cccc2cc(-c3cccc(C)c3CNc3nc(NCC4CNCCO4)nc4c(C(C)C)cnn34)[nH]c12 (centres unmarked) [Compound 141]
IC50 (CDK1/Cyclin B): > 1 µM
IC50 (CDK2/Cyclin A): > 1 µM
IC50 (CDK7/Cyclin H/MNAT1): < 0.1 µM
CDK1/CDK7: Selectivity of CDK7 inhibition over CDK1 inhibition (CDK7/Cyclin H/MNAT1): A (A indicates [fold] > 500)
CDK2/CDK7: Selectivity of CDK7 inhibition over CDK2 inhibition (CDK7/Cyclin H/MNAT1): A (A indicates [fold] > 500)
CDK5/CDK7: Selectivity of CDK7 inhibition over CDK5 inhibition (CDK7/Cyclin H/MNAT1): A (A indicates [fold] > 500)
IC50 (CDK5/p25): > 1 µM

CN[C@H]1CC[C@H](Nc2nc(NCc3ccccc3-c3nccc4cc(NC(=O)/C=C/CN(C)C)ccc34)n3ncc(C(C)C)c3n2)CC1 [Compound 145]
IC50 (CDK1/Cyclin B): > 1 µM
IC50 (CDK2/Cyclin A): > 1 µM
IC50 (CDK7/Cyclin H/MNAT1): < 0.1 µM
CDK1/CDK7: Selectivity of CDK7 inhibition over CDK1 inhibition (CDK7/Cyclin H/MNAT1): A (A indicates [fold] > 500)
CDK2/CDK7: Selectivity of CDK7 inhibition over CDK2 inhibition (CDK7/Cyclin H/MNAT1): A (A indicates [fold] > 500)
CDK5/CDK7: Selectivity of CDK7 inhibition over CDK5 inhibition (CDK7/Cyclin H/MNAT1): A (A indicates [fold] > 500)
IC50 (CDK5/p25): > 1 µM
